Where only a bound is given, the exact number is not on record here.

In data set [1] the target is E3 ubiquitin-protein ligase TRIM33 (Homo sapiens, UniProt Q9UPN9). As to the kind of experiment: Inhibition of human TRIM33 expressed in Escherichia coli BL21 after 1 hr by BROMOscan assay.
The nature of data set [2]: Apparent permeability across apical side to basolateral side in human Caco2 cells at 10 uM after 2 hrs by LC-MS/MS analysis. The format is ADME, cell-based. The note with it: Caco-2.
The test system of data set [3] is SNU-5. Description: Growth inhibition of human SNU5 cells after 72 hrs. The format is functional. The note with it: SNU-5, 72 h.
The nature of data set [4]: Growth inhibition of human Panc 02.03 cells after 72 hrs. The format is functional. The note with it: Panc 02.03, 72 h.
Data set [5] relates to IM-9. Description: Growth inhibition of human IM9 cells after 72 hrs. The class given is functional. The note with it: IM-9, 72 h.

E3 ubiquitin-protein ligase TRIM33, sequence (Q9UPN9 whole entry): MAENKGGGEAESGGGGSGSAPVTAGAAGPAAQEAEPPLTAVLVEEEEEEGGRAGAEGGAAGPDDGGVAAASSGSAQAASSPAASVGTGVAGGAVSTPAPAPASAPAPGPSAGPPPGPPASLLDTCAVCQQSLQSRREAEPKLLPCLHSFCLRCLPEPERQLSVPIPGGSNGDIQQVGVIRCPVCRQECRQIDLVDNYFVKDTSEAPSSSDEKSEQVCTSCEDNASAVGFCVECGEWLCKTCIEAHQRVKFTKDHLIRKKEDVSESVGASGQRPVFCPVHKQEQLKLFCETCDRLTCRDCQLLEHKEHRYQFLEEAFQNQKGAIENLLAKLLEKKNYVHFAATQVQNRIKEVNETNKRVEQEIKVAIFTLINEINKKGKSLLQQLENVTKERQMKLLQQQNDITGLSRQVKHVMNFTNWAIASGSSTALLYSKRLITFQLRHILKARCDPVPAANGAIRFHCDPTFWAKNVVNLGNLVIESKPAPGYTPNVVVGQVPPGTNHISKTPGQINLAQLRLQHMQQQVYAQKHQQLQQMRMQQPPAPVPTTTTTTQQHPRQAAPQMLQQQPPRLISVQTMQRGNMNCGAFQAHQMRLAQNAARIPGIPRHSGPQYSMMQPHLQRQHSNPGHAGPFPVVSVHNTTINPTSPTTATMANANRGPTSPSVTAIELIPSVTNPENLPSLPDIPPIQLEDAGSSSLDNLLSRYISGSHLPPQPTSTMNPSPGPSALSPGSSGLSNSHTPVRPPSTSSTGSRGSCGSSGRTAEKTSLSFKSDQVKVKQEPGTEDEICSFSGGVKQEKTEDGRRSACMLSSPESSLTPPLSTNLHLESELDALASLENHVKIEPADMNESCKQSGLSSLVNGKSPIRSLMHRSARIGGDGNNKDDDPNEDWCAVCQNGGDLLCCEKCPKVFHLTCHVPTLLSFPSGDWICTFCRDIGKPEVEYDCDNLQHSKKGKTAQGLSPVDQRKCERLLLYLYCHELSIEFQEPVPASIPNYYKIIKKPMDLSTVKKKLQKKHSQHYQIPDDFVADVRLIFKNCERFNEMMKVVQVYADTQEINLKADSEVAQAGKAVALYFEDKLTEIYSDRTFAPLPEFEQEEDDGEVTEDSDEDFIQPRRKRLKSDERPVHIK

As a reminder, the IC50 is the concentration that inhibits the measured activity by half. In data set [1], `CCc1cc2cc(NS(=O)(=O)c3ccc(C#N)cc3)ccc2n(CC)c1=O` yielded a 50% inhibitory concentration (IC50) of over 100 µM.
For orientation: Papp A→B means how fast a substance crosses the layer from the apical side. Usually GI50 stands for the concentration giving 50% growth inhibition. Lower therefore signals greater sensitivity of the cells. As for `Cc1cc2cc(NS(=O)(=O)c3ccc(C#N)cc3)ccc2n(C)c1=O`, in data set [2], the apical-to-basolateral permeability (Papp A→B) at 2 h, 10 µM stood at 10 ×10⁻⁶ cm/s. Further, the GI50 in data set [3], in data set [4] and in data set [5] was 1 to 10 µM each time.
